According to US5635479A, “Treatment of gynecological malignancies with biologically active peptides” (Magainin Pharmaceuticals Inc., priority 1995, dated 1997):
Square brackets hold non-standard residues; d marks the D form. Ends that are not written are not given here. Peptide text beside a SMILES is read from it. * marks the point of attachment. Octanoyl = CCCCCCCC(=O)*

System: murine Spontaneous Ovarian Teratoma cells (SOT cells)
Assay: Survival and ascites accumulation of mice injected with Spontaneous Ovarian Teratoma cells
Format: in vivo
Conditions: for ILS / Median Survival Time: Table I, i.p. days 2 and 5 after SOT cells; for delay of accumulation of ascites fluid (body weight data): Example 1, FIG. 1, untreated mice began to accumulate fluid 5 to 7 days after implantation; for increase in lifespan: Example 1, FIG. 2, median day of death as endpoint; for accumulation of ascites fluid (body weight data) vs control group: Example 3, FIG. 4, peptides 20 mg/kg at 2 days, or 2 and 5 days, adriamycin 5 mg/kg on day 2 only; for survival time and survivors vs control group: Example 3, FIG. 3, 20 mg/kg at 2 days, or at 2 days and 5 days after SOT cells
Experimental: Groups of mice, with six mice in each group, were injected with murine Spontaneous Ovarian Teratoma cells (SOT cells). At day 2, or at day 2 and day 5 after injection, the mice were injected with a saline solution, 5 mg/kg adriamycin (day 2 only), with 22 mg/kg of a peptide having the structure (SEQ ID NO:115)-NH2, or, in which each amino acid residue of (SEQ ID NO:115)-NH2 is a D-amino acid residue, such peptide hereinafter referred to as D-(SEQ ID NO:115)-NH2 or with 130 mg/kg of Cecropin A (SEQ ID NO:116)-NH2. The animals were monitored for survival time, the number of survivors in each group, the increase in lifespan, and the increase in body weight.
The treatment with adriamycin increased the lifespan by 76%.
Groups of mice, with 5 or 6 mice in each group, were injected with Spontaneous Ovarian Teratoma Cells. At 2 days and 5 days after the injection of the Spontaneous Ovarian Teratoma Cells (SOT cells), the groups of mice were injected intraperitoneally with a control saline solution, adriamycin, or with one of the following peptides:
The mice in each group were then monitored for median survival time (in days) and for increase in life span (ILS) vis a vis the control group. The median survival time is the day of death of the third mouse in each group. The results for the groups of mice given intraperitoneal injections of peptide at days 2 and 5 following injection of SOT cells are given in Table I below.
Groups of mice, with 6 mice in each group, were injected with Spontaneous Ovarian Teratoma Cells as described in Example 2. At 2 days, or at 2 days and 5 days after the injection of the SOT cells, the groups of mice were injected with saline (control), adriamycin (5 mg/kg-on day 2 only), or with 20 mg/kg of (SEQ ID NO:115)-NH2 or D-(SEQ ID NO:115)-NH2. The mice were then monitored for survival time, as well as for body weight.

[1] = 22 mg/kg D-(SEQ ID NO:115)-NH2, 130 mg/kg (SEQ ID NO:116)-NH2, 5 mg/kg adriamycin
[2] = administered on day 2 only, 22 mg/kg D-(SEQ ID NO:115)-NH2, 130 mg/kg (SEQ ID NO:116)-NH2, 5 mg/kg adriamycin
[3] = administered on day 2 and day 5, 22 mg/kg D-(SEQ ID NO:115)-NH2, 130 mg/kg (SEQ ID NO:116)-NH2
[4] = dose 130 mg/kg/day, control value not given

CCCCCCCC(=O)N[C@@H](CCCCN)C(=O)N[C@H](C(=O)N[C@@H](C)C(=O)NCC(=O)N[C@@H](CCCCN)C(=O)N[C@H](C(=O)N[C@@H](C)C(=O)N[C@@H](CCCCN)C(=O)N[C@H](C(=O)N[C@@H](C)C(=O)NCC(=O)N[C@@H](CCCCN)C(=O)N[C@H](C(=O)N[C@@H](C)C(=O)N[C@@H](CCCCN)C(=O)N[C@H](C(=O)N[C@@H](C)C(=O)NCC(=O)N[C@@H](CCCCN)C(=O)N[C@H](C(=O)N[C@@H](C)C(N)=O)[C@@H](C)CC)[C@@H](C)CC)[C@@H](C)CC)[C@@H](C)CC)[C@@H](C)CC)[C@@H](C)CC [Oct-(SEQ ID NO:27)-NH2] (Octanoyl-KIAGKIAKIAGKIAKIAGKIA-NH2)
ILS (dose 20 mg/kg/day, controls 21): 100%
Median Survival Time (dose 20 mg/kg/day, controls 21): 42 days

COc1cccc2c1C(=O)c1c(O)c3c(c(O)c1C2=O)C[C@@](O)(C(=O)CO)C[C@@H]3O[C@H]1C[C@H](N)[C@H](O)[C@H](C)O1 [adriamycin, reference compound]
delay of accumulation of ascites fluid (body weight data) [1]: at least 20 days
increase in lifespan [2]: 76%
accumulation of ascites fluid (body weight data) vs control group: delayed and was also significantly less

(SEQ ID NO:115)-NH2: peptide having the structure (SEQ ID NO:115)-NH2; sequence not printed in the text (GIGKFLKKAKKFAKAFVKIINN-NH2)
survival time and survivors vs control group: significantly greater survival times and had more survivors
accumulation of ascites fluid (body weight data) vs control group: delayed and was also significantly less
ILS (dose 20 mg/kg/day, controls 21): 100%
Median Survival Time (dose 20 mg/kg/day, controls 21): 42 days
ILS (dose 22 mg/kg/day, controls 21): 81%
Median Survival Time (dose 22 mg/kg/day, controls 21): 38 days

(SEQ ID NO:116)-NH2: Cecropin A, amide (KWKLFKKIEKVGQNIRDGIIKAGPAVAVVGQATQIAK-NH2)
delay of accumulation of ascites fluid (body weight data) [1]: at least 20 days
increase in lifespan [3]: 112%
increase in lifespan [2]: 100%
ILS [4]: 112%
Median Survival Time [4]: 36 days

(SEQ ID NO:117)-NH2: peptide of the sequence listing, amide; sequence not printed in the text (GIGKFLKSAKKFGKAFVKILNS-NH2)
ILS (dose 45 mg/kg/day, controls 21): 83%
Median Survival Time (dose 45 mg/kg/day, controls 21): 38 days

D-(SEQ ID NO:115)-NH2: (SEQ ID NO:115)-NH2 in which each amino acid residue is a D-amino acid residue (G[dI]G[dK][dF][dL][dK][dK][dA][dK][dK][dF][dA][dK][dA][dF][dV][dK][dI][dI][dN][dN]-NH2; N-terminus assumed; SMILES CC[C@@H](C)[C@@H](NC(=O)CN)C(=O)NCC(=O)N[C@H](CCCCN)C(=O)N[C@H](Cc1ccccc1)C(=O)N[C@H](CC(C)C)C(=O)N[C@H](CCCCN)C(=O)N[C@H](CCCCN)C(=O)N[C@H](C)C(=O)N[C@H](CCCCN)C(=O)N[C@H](CCCCN)C(=O)N[C@H](Cc1ccccc1)C(=O)N[C@H](C)C(=O)N[C@H](CCCCN)C(=O)N[C@H](C)C(=O)N[C@H](Cc1ccccc1)C(=O)N[C@@H](C(=O)N[C@H](CCCCN)C(=O)N[C@@H](C(=O)N[C@@H](C(=O)N[C@H](CC(N)=O)C(=O)N[C@H](CC(N)=O)C(N)=O)[C@H](C)CC)[C@H](C)CC)C(C)C)
delay of accumulation of ascites fluid (body weight data) [1]: at least 20 days
increase in lifespan [3]: 144%
increase in lifespan [2]: 115%
survival time and survivors vs control group: significantly greater survival times and had more survivors
accumulation of ascites fluid (body weight data) vs control group: delayed and was also significantly less
ILS (dose 22 mg/kg/day, controls 17): 144%
Median Survival Time (dose 22 mg/kg/day, controls 17): 41.5 days
ILS (dose 22 mg/kg/day, controls 21): 52%
Median Survival Time (dose 22 mg/kg/day, controls 21): 32 days

D-(SEQ ID NO:117)-NH2: D-form of (SEQ ID NO:117)-NH2 (G[dI]G[dK][dF][dL][dK][dS][dA][dK][dK][dF]G[dK][dA][dF][dV][dK][dI][dL][dN][dS]-NH2; N-terminus assumed; SMILES CC[C@@H](C)[C@@H](NC(=O)CN)C(=O)NCC(=O)N[C@H](CCCCN)C(=O)N[C@H](Cc1ccccc1)C(=O)N[C@H](CC(C)C)C(=O)N[C@H](CCCCN)C(=O)N[C@H](CO)C(=O)N[C@H](C)C(=O)N[C@H](CCCCN)C(=O)N[C@H](CCCCN)C(=O)N[C@H](Cc1ccccc1)C(=O)NCC(=O)N[C@H](CCCCN)C(=O)N[C@H](C)C(=O)N[C@H](Cc1ccccc1)C(=O)N[C@@H](C(=O)N[C@H](CCCCN)C(=O)N[C@@H](C(=O)N[C@H](CC(C)C)C(=O)N[C@H](CC(N)=O)C(=O)N[C@H](CO)C(N)=O)[C@H](C)CC)C(C)C)
ILS (dose 15 mg/kg/day, controls 21): 67%
Median Survival Time (dose 15 mg/kg/day, controls 21): 35 days
